Data reported in ChEMBL document CHEMBL3045770, “Design and synthesis of some thieno[2,3-c]pyridazine derivatives of expected anticancer activity” (2013).

Legend:
Type in all cases: functional
SNB-75 = assay: Cytotoxicity against Homo sapiens (human) SNB75 assessed as cell growth at 10 uM after 48 hr by SRB assay relative to control; details: SNB-75, 48 h, read-out: Activity
SF-268 = assay: Cytotoxicity against Homo sapiens (human) SF268 assessed as cell growth at 10 uM after 48 hr by SRB assay relative to control; details: SF-268, 48 h, read-out: Activity
SW-620 = assay: Cytotoxicity against Homo sapiens (human) SW620 assessed as cell growth at 10 uM after 48 hr by SRB assay relative to control; details: SW-620, 48 h, read-out: Activity
KM12 = assay: Cytotoxicity against Homo sapiens (human) KM12 assessed as cell growth at 10 uM after 48 hr by SRB assay relative to control; details: KM12, 48 h, read-out: Activity
HCT-15 = assay: Cytotoxicity against Homo sapiens (human) HCT15 assessed as cell growth at 10 uM after 48 hr by SRB assay relative to control; details: HCT-15, 48 h, read-out: Activity
HT-29 = assay: Cytotoxicity against Homo sapiens (human) HT-29 assessed as cell growth at 10 uM after 48 hr by SRB assay relative to control; details: HT-29, 48 h, read-out: Activity
COLO 205 = assay: Cytotoxicity against Homo sapiens (human) COLO205 assessed as cell growth at 10 uM after 48 hr by SRB assay relative to control; details: COLO 205, 48 h, read-out: Activity
HCC 2998 = assay: Cytotoxicity against Homo sapiens (human) HCC2998 assessed as cell growth at 10 uM after 48 hr by SRB assay relative to control; details: HCC 2998, 48 h, read-out: Activity
NCI-H460 = assay: Cytotoxicity against Homo sapiens (human) NCI-H460 assessed as cell growth at 10 uM after 48 hr by SRB assay relative to control; details: NCI-H460, 48 h, read-out: Activity
NCI-H226 = assay: Cytotoxicity against Homo sapiens (human) NCI-H226 assessed as cell growth at 10 uM after 48 hr by SRB assay relative to control; details: NCI-H226, 48 h, read-out: Activity
NCI-H23 = assay: Cytotoxicity against Homo sapiens (human) NCI-H23 assessed as cell growth at 10 uM after 48 hr by SRB assay relative to control; details: NCI-H23, 48 h, read-out: Activity
HOP-92 = assay: Cytotoxicity against Homo sapiens (human) HOP92 assessed as cell growth at 10 uM after 48 hr by SRB assay relative to control; details: HOP-92, 48 h, read-out: Activity
HOP-62 = assay: Cytotoxicity against Homo sapiens (human) HOP62 assessed as cell growth at 10 uM after 48 hr by SRB assay relative to control; details: HOP-62, 48 h, read-out: Activity
MOLT-4 = assay: Cytotoxicity against Homo sapiens (human) MOLT4 assessed as cell growth at 10 uM after 48 hr by SRB assay relative to control; details: MOLT-4, 48 h, read-out: Activity
RPMI-8226 = assay: Cytotoxicity against Homo sapiens (human) RPMI8226 assessed as cell growth at 10 uM after 48 hr by SRB assay relative to control; details: RPMI-8226, 48 h, read-out: Activity
SN12C = assay: Cytotoxicity against Homo sapiens (human) SN12C assessed as cell growth at 10 uM after 48 hr by SRB assay relative to control; details: read-out: Activity
RXF 393 = assay: Cytotoxicity against Homo sapiens (human) RXF393 assessed as cell growth at 10 uM after 48 hr by SRB assay relative to control; details: RXF 393, 48 h, read-out: Activity
SK-OV-3 = assay: Cytotoxicity against Homo sapiens (human) SKOV3 assessed as cell growth at 10 uM after 48 hr by SRB assay relative to control; details: SK-OV-3, 48 h, read-out: Activity
ACHN = assay: Cytotoxicity against Homo sapiens (human) ACHN assessed as cell growth at 10 uM after 48 hr by SRB assay relative to control; details: read-out: Activity
MCF7 = assay: Cytotoxicity against Homo sapiens (human) MCF7 assessed as cell growth at 10 uM after 48 hr by SRB assay relative to control; details: MCF7, 48 h, read-out: Activity
OVCAR-8 = assay: Cytotoxicity against Homo sapiens (human) OVCAR8 assessed as cell growth at 10 uM after 48 hr by SRB assay relative to control; details: OVCAR-8, 48 h, read-out: Activity
OVCAR-5 = assay: Cytotoxicity against Homo sapiens (human) OVCAR5 assessed as cell growth at 10 uM after 48 hr by SRB assay relative to control; details: OVCAR-5, 48 h, read-out: Activity
SK-MEL-28 = assay: Cytotoxicity against Homo sapiens (human) SK-MEL-28 assessed as cell growth at 10 uM after 48 hr by SRB assay relative to control; details: SK-MEL-28, 48 h, read-out: Activity
MDA-MB-435 = assay: Cytotoxicity against Homo sapiens (human) MDA-MB-435 assessed as cell growth at 10 uM after 48 hr by SRB assay relative to control; details: MDA-MB-435, 48 h, read-out: Activity
LOX IMVI = assay: Cytotoxicity against Homo sapiens (human) LOXIMVI assessed as cell growth at 10 uM after 48 hr by SRB assay relative to control; details: read-out: Activity
CCRF-CEM = assay: Cytotoxicity against Homo sapiens (human) CCRF-CEM assessed as cell growth at 10 uM after 48 hr by SRB assay relative to control; details: read-out: Activity
MDA-MB-468 = assay: Cytotoxicity against Homo sapiens (human) MDA-MB-468 assessed as cell growth at 10 uM after 48 hr by SRB assay relative to control; details: MDA-MB-468, 48 h, read-out: Activity
BT-549 = assay: Cytotoxicity against Homo sapiens (human) BT549 assessed as cell growth at 10 uM after 48 hr by SRB assay relative to control; details: BT-549, 48 h, read-out: Activity
MDA-MB-231 = assay: Cytotoxicity against Homo sapiens (human) MDA-MB-231 assessed as cell growth at 10 uM after 48 hr by SRB assay relative to control; details: MDA-MB-231, 48 h, read-out: Activity
DU-145 = assay: Cytotoxicity against Homo sapiens (human) DU145 assessed as cell growth at 10 uM after 48 hr by SRB assay relative to control; details: DU-145, 48 h, read-out: Activity
SF-295 = assay: Cytotoxicity against Homo sapiens (human) SF295 assessed as cell growth at 10 uM after 48 hr by SRB assay relative to control; details: SF-295, 48 h, read-out: Activity
A549 = assay: Cytotoxicity against Homo sapiens (human) A549 assessed as cell growth at 10 uM after 48 hr by SRB assay relative to control; details: A549, 48 h, read-out: Activity

Row | Structure (SMILES) | growth at 10 µM (SNB-75) [%] | growth at 10 µM (SF-268) [%] | growth at 10 µM (SW-620) [%] | growth at 10 µM (KM12) [%] | growth at 10 µM (HCT-15) [%] | growth at 10 µM (HT-29) [%] | growth at 10 µM (COLO 205) [%] | growth at 10 µM (NCI-H460) [%] | growth at 10 µM (NCI-H226) [%] | growth at 10 µM (HOP-62) [%] | growth at 10 µM (MOLT-4) [%] | growth at 10 µM (RPMI-8226) [%] | growth at 10 µM (SN12C) [%] | growth at 10 µM (RXF 393) [%] | growth at 10 µM (ACHN) [%] | growth at 10 µM (OVCAR-8) [%] | growth at 10 µM (OVCAR-5) [%] | growth at 10 µM (SK-MEL-28) [%] | growth at 10 µM (MDA-MB-435) [%] | growth at 10 µM (CCRF-CEM) [%] | further results
1 | CC(=O)Oc1c(C2=NN(C(C)=O)C(c3ccc(F)cc3)O2)sc2nnc(-c3ccccc3)c(-c3ccccc3)c12 (configuration not stated) | 78.1 | 89.6 | 97.4 | 81.7 | 61.1 | 102 | 117 | 101 | 92.4 | 121 | 55.1 | 71.3 | 80.2 | 88 | 72 | 101 | 95.3 | 82.1 | 79.6 | 39.1 | growth at 10 µM (HCC 2998): 82.8%; growth at 10 µM (NCI-H23): 103%; growth at 10 µM (HOP-92): 46.2%; growth at 10 µM (SK-OV-3): 97.6%; growth at 10 µM (MCF7): 73.7%; growth at 10 µM (LOX IMVI): 99%; growth at 10 µM (MDA-MB-468): 84%; growth at 10 µM (BT-549): 65.3%; growth at 10 µM (MDA-MB-231): 85.9%; growth at 10 µM (DU-145): 114%
2 | Oc1c(-c2nnc(-c3ccccc3)o2)sc2nnc(-c3ccccc3)c(-c3ccccc3)c12 | 84.4 | 85.5 | 64.4 | 72.3 | 36.6 | 103 | 102 | 39.8 | 85 | 73.7 | 47.9 | 64.8 | 61.4 | 85.6 | 67 | 66.8 | 106 | 85.2 | 78.4 | 47.7 | growth at 10 µM (SF-295): 42.9%; growth at 10 µM (HCC 2998): 70.4%; growth at 10 µM (NCI-H23): 90.4%; growth at 10 µM (HOP-92): 81.7%; growth at 10 µM (SK-OV-3): 83%; growth at 10 µM (MCF7): 58%; growth at 10 µM (LOX IMVI): 65.7%; growth at 10 µM (MDA-MB-468): 64.7%; growth at 10 µM (BT-549): 74.9%; growth at 10 µM (MDA-MB-231): 89.2%; growth at 10 µM (DU-145): 106%
3 | CNc1nnc(-c2sc3nnc(-c4ccccc4)c(-c4ccccc4)c3c2O)s1 | 87.9 | 106 | 105 | 126 | 98.9 | 102 | 131 | 106 | 106 | 115 | 93.3 | 113 | 94.2 | 103 | 107 | 104 | 96.5 | 111 | 103 | 110 | growth at 10 µM (SF-295): 91.7%; growth at 10 µM (HCC 2998): 98.4%; growth at 10 µM (NCI-H23): 115%; growth at 10 µM (HOP-92): 116%; growth at 10 µM (SK-OV-3): 97.7%; growth at 10 µM (MCF7): 88.7%; growth at 10 µM (LOX IMVI): 103%; growth at 10 µM (MDA-MB-468): 92.6%; growth at 10 µM (BT-549): 101%; growth at 10 µM (MDA-MB-231): 104%; growth at 10 µM (DU-145): 135%
4 | CCOC(=O)c1c(Nc2ccc(S(=O)(=O)Nc3nccs3)cc2)nnc(-c2ccccc2)c1-c1ccccc1 | 104 | 112 | 131 | 114 | 106 | 116 | 114 | 111 | 102 | 117 | 79.3 | 96.5 | 94.8 | 120 | 102 | 102 | 117 | 113 | 119 | 91.3 | growth at 10 µM (SF-295): 101%; growth at 10 µM (HOP-92): 84.3%; growth at 10 µM (A549): 110%; growth at 10 µM (SK-OV-3): 106%; growth at 10 µM (MDA-MB-468): 110%; growth at 10 µM (BT-549): 98.9%; growth at 10 µM (MDA-MB-231): 115%; growth at 10 µM (DU-145): 114%
5 | Oc1c(-c2nnc(SCc3ccccc3)o2)sc2nnc(-c3ccccc3)c(-c3ccccc3)c12 | 87.8 | 103 | 109 | 107 | 93.6 | 89.8 | 122 | 111 | 101 | 105 | 86 | 92.9 | 99.5 | 90 | 104 | 104 | 98.8 | 98.9 | 99.4 | 66.8 | growth at 10 µM (HCC 2998): 96.5%; growth at 10 µM (NCI-H23): 106%; growth at 10 µM (HOP-92): 52.5%; growth at 10 µM (SK-OV-3): 100%; growth at 10 µM (MCF7): 82.2%; growth at 10 µM (LOX IMVI): 84%; growth at 10 µM (MDA-MB-468): 101%; growth at 10 µM (BT-549): 107%; growth at 10 µM (MDA-MB-231): 97.9%; growth at 10 µM (DU-145): 112%
6 | CSc1nnc(-c2sc3nnc(-c4ccccc4)c(-c4ccccc4)c3c2O)o1 | 78.4 | 80.6 | 92.5 | 72.9 | 54.6 | 107 | 110 | 56.7 | 87.7 | 71.1 | 61.9 | 67.2 | 75.7 | 82.6 | 83.6 | 85.8 | 101 | 85.5 | 88.4 | 47.4 | growth at 10 µM (SF-295): 40.9%; growth at 10 µM (A549): 80.5%; growth at 10 µM (MCF7): 83.5%; growth at 10 µM (MDA-MB-468): 78.9%; growth at 10 µM (BT-549): 74.1%; growth at 10 µM (MDA-MB-231): 90.4%; growth at 10 µM (DU-145): 84.7%
